Reference: PMC12820599, “Structural characterisation of nucleotide sugar short‐chain dehydrogenases/reductases from the thermophilic pseudomurein‐containing methanogen Methanothermobacter thermautotrophicus ΔH” (The Febs Journal, 2025)

Experiments:
Assay type in all cases: binding
Mth373 [1] = biological target: T1, Mth373 (Methanothermobacter thermautotrophicus, UniProt O26473); test: X-ray crystal structure ([…] and […] Å); settings: 2.0 mM NADH added; coenzyme site of each monomer; printed as NADH, NAD(H) and NAD
T1 construct: gene MTH_373; recombinant hexahistidine-tagged, E. coli LOBSTR BL21*; 311-residue monomer; dimer

Mth375 [2] = biological target: T2, Mth375 (Methanothermobacter thermautotrophicus, UniProt O26475); test: X-ray crystal structure ([…] Å); settings: coenzyme site (Rossmann fold); no coenzyme added (co-purified); redox state not settled (NAD/NADH/NAD(H) printed); UDP bound
T2 construct: gene MTH_375; recombinant hexahistidine-tagged (pET100D), E. coli BL21-Rosetta 2; 332 residues seen; dimer; Cys131 (and Cys13 in Mth375_NU) modified by beta-mercaptoethanol

Mth375 [3] = biological target: T2, Mth375; test: X-ray crystal structure ([…] and […] Å); settings: co-crystallised with 1.0 mM UDP; active site; NAD(H) (6PNL) or AMP (6PMH) also bound; 21 °C
Mth373 [4] = biological target: T1, Mth373; test: X-ray crystal structure ([…] Å); settings: co-crystallised with 1.0 mM UDP and 2.0 mM NADH; active site of both monomers; pH 5.0; UDP also in one monomer of 9AR1

T1 sequence (O26473 entry or part of it): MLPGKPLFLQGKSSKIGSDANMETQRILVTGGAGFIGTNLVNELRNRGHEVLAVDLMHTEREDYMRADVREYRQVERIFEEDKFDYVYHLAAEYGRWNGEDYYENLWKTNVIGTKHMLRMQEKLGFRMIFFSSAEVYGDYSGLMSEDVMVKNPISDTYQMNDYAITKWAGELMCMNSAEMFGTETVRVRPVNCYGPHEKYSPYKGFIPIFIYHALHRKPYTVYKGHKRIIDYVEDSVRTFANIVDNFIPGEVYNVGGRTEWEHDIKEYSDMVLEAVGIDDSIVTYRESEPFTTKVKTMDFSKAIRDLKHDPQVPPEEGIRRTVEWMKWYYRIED
T2 sequence (O26475 entry or part of it): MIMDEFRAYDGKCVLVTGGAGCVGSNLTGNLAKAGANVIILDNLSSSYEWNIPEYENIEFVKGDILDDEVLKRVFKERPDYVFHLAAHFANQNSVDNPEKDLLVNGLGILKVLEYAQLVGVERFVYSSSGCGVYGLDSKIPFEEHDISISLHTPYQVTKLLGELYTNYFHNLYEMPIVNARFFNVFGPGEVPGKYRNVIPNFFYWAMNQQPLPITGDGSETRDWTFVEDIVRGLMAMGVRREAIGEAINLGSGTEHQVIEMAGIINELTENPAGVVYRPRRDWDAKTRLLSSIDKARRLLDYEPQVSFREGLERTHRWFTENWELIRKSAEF

NC(=O)C1=CN([C@@H]2O[C@H](COP(=O)(O)OP(=O)(O)OC[C@H]3O[C@@H](n4cnc5c(N)ncnc54)[C@H](O)[C@@H]3O)[C@@H](O)[C@H]2O)C=CC1 [NADH]
X-ray crystal structure (1.96 and 2.00 Å) (Mth373 [1]): Both complexes have interpretable electron density for a molecule of NADH
X-ray crystal structure (2.01 Å) (Mth375 [2]): Mth375_NU contained a single NADH molecule

O=c1ccn([C@@H]2O[C@H](COP(=O)(O)OP(=O)(O)O)[C@@H](O)[C@H]2O)c(=O)[nH]1 [UDP]
X-ray crystal structure (2.01 and 2.30 Å) (Mth375 [3]): A single molecule of UDP was bound to each Mth375 complex
X-ray crystal structure (2.00 Å) (Mth373 [4]): A single molecule of UDP was bound to each active site of the Mth373_NU dimer
